Reference: PubChem BioAssay (NCI)
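The compound was tested at five concentrations on cells cultured in 96-well plates, with a 48-hour exposure period. TGI is the concentration that stops growth completely.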

How the values were obtained:
Experiment in all cases: growth of human tumour cells (NCI), 48 h
786-0 renal = test system: 786-0 renal
A498 renal = test system: A498 renal
A549 NSCLC = test system: A549 NSCLC
ACHN renal = test system: ACHN renal
BT-549 breast = test system: BT-549 breast
CAKI-1 renal = test system: CAKI-1 renal
CCRF-CEM leukemia = test system: CCRF-CEM leukemia
COLO 205 colon = test system: COLO 205 colon
DU-145 prostate = test system: DU-145 prostate
EKVX NSCLC = test system: EKVX NSCLC
HCC-2998 colon = test system: HCC-2998 colon
HCT-116 colon = test system: HCT-116 colon
HCT-15 colon = test system: HCT-15 colon
HL-60(TB) leukemia = test system: HL-60(TB) leukemia
HOP-62 NSCLC = test system: HOP-62 NSCLC
HOP-92 NSCLC = test system: HOP-92 NSCLC
HS 578T breast = test system: HS 578T breast
HT29 colon = test system: HT29 colon
IGROV1 ovarian = test system: IGROV1 ovarian
KM12 colon = test system: KM12 colon
LOX IMVI melanoma = test system: LOX IMVI melanoma
M14 melanoma = test system: M14 melanoma
MALME-3M melanoma = test system: MALME-3M melanoma
MCF7 breast = test system: MCF7 breast
MDA-MB-231 breast = test system: MDA-MB-231 breast
MDA-MB-435 = test system: MDA-MB-435
MDA-N = test system: MDA-N
MOLT-4 leukemia = test system: MOLT-4 leukemia
NCI-H226 lung = test system: NCI-H226 lung
NCI-H23 lung = test system: NCI-H23 lung
NCI-H460 lung = test system: NCI-H460 lung
NCI-H522 lung = test system: NCI-H522 lung
NCI/ADR-RES ovarian = test system: NCI/ADR-RES ovarian
OVCAR-3 ovarian = test system: OVCAR-3 ovarian
OVCAR-4 ovarian = test system: OVCAR-4 ovarian
OVCAR-5 ovarian = test system: OVCAR-5 ovarian
OVCAR-8 ovarian = test system: OVCAR-8 ovarian
PC-3 prostate = test system: PC-3 prostate
RPMI-8226 leukemia = test system: RPMI-8226 leukemia
SF-268 CNS = test system: SF-268 CNS
SF-295 CNS = test system: SF-295 CNS
SF-539 CNS = test system: SF-539 CNS
SK-MEL-2 melanoma = test system: SK-MEL-2 melanoma
SK-MEL-28 melanoma = test system: SK-MEL-28 melanoma
SK-MEL-5 melanoma = test system: SK-MEL-5 melanoma
SK-OV-3 ovarian = test system: SK-OV-3 ovarian
SN12C renal = test system: SN12C renal
SNB-19 CNS = test system: SNB-19 CNS
SNB-75 CNS = test system: SNB-75 CNS
SR leukemia = test system: SR leukemia
SW-620 colon = test system: SW-620 colon
T-47D breast = test system: T-47D breast
TK-10 renal = test system: TK-10 renal
U251 CNS = test system: U251 CNS
UACC-257 melanoma = test system: UACC-257 melanoma
UACC-62 melanoma = test system: UACC-62 melanoma
UO-31 renal = test system: UO-31 renal

Fc1ccc(Nc2nc(Cl)c3[nH]cnc3n2)cc1Cl was tested, and the TGI (786-0 renal) was greater than 100 µM, the TGI (A498 renal) was greater than 100 µM and the TGI (A549 NSCLC) was greater than 100 µM. The TGI (ACHN renal) was greater than 100 µM, the TGI (BT-549 breast) was greater than 100 µM and the TGI (CAKI-1 renal) was greater than 100 µM. The TGI (CCRF-CEM leukemia) was greater than 100 µM, the TGI (COLO 205 colon) was greater than 100 µM and the TGI (DU-145 prostate) was greater than 100 µM. It also gave a TGI (EKVX NSCLC) greater than 100 µM, a TGI (HCC-2998 colon) greater than 100 µM and a TGI (HCT-116 colon) greater than 100 µM. The TGI (HCT-15 colon) was greater than 100 µM, the TGI (HL-60(TB) leukemia) was greater than 100 µM and the TGI (HOP-62 NSCLC) was greater than 100 µM. The TGI (HOP-92 NSCLC) was greater than 100 µM, the TGI (HS 578T breast) was greater than 100 µM and the TGI (HT29 colon) was greater than 100 µM. For the same compound, the TGI (IGROV1 ovarian) was greater than 100 µM, the TGI (KM12 colon) was greater than 100 µM and the TGI (LOX IMVI melanoma) was greater than 100 µM. It also gave a TGI (M14 melanoma) greater than 100 µM, a TGI (MALME-3M melanoma) greater than 100 µM and a TGI (MCF7 breast) greater than 100 µM. It also gave a TGI (MDA-MB-231 breast) greater than 100 µM, a TGI (MDA-MB-435) greater than 100 µM and a TGI (MDA-N) greater than 100 µM. It also gave a TGI (MOLT-4 leukemia) greater than 100 µM, a TGI (NCI-H226 lung) greater than 100 µM and a TGI (NCI-H23 lung) greater than 100 µM. For the same compound, the TGI (NCI-H460 lung) was greater than 100 µM, the TGI (NCI-H522 lung) was greater than 100 µM and the TGI (NCI/ADR-RES ovarian) was greater than 100 µM. It also gave a TGI (OVCAR-3 ovarian) greater than 100 µM, a TGI (OVCAR-4 ovarian) greater than 100 µM and a TGI (OVCAR-5 ovarian) greater than 100 µM. For the same compound, the TGI (OVCAR-8 ovarian) was greater than 100 µM, the TGI (PC-3 prostate) was greater than 100 µM and the TGI (RPMI-8226 leukemia) was greater than 100 µM. For the same compound, the TGI (SF-268 CNS) was greater than 100 µM, the TGI (SF-295 CNS) was greater than 100 µM and the TGI (SF-539 CNS) was greater than 100 µM. It also gave a TGI (SK-MEL-2 melanoma) greater than 100 µM, a TGI (SK-MEL-28 melanoma) greater than 100 µM and a TGI (SK-MEL-5 melanoma) greater than 100 µM. The TGI (SK-OV-3 ovarian) was greater than 100 µM, the TGI (SN12C renal) was greater than 100 µM and the TGI (SNB-19 CNS) was greater than 100 µM. For the same compound, the TGI (SNB-75 CNS) was greater than 100 µM, the TGI (SR leukemia) was greater than 100 µM and the TGI (SW-620 colon) was greater than 100 µM. It also gave a TGI (T-47D breast) greater than 100 µM, a TGI (TK-10 renal) greater than 100 µM and a TGI (U251 CNS) greater than 100 µM. It also gave a TGI (UACC-257 melanoma) greater than 100 µM, a TGI (UACC-62 melanoma) greater than 100 µM and a TGI (UO-31 renal) of 33.5 µM.
